{
  "source": "patent US7863499B2",
  "about": "“Model of infantile spasm syndrome” (Albert Einstein College of Medicine of Yeshiva University, priority 2007, dated 2011)",
  "test_system": "rat pups",
  "experiment": "Induction of spasm-like seizures in rat pups (video monitoring)",
  "format": "in vivo",
  "conditions": "PCPA only, five pups",
  "method": "[…] The pups were injected with DOX i.c.v. and LPS intracerebrally in the right centroparietal cortex at P3; PCPA was administered i.p. at P5. […] There were no sex differences and the data were combined.\nBehavioral seizures and spasm-like episodes. […] Seven pups had recurrent seizures resembling spasms. Spasms were first observed at P7 in 60% of the pups. […] The spasms were characterized by the abrupt onset of flexion of the trunk with extension of the limbs at the height of the spasm (the sequence is shown in FIG. 2). In two pups, extension spasms were sometimes observed. The spasms lasted from 1 to 5 seconds.\nAnesthesia. Rat pups were anesthetized with 2% isoflurane in 100% O2 continuously delivered by a small facemask, custom-fitted to the stereotaxic frame.\nInjections of DOX and LPS. Both male and female rats were used. At P3, stereotaxic injections of DOX and LPS were performed using a 25 μL Hamilton syringe. DOX was injected into the right ventricle (AP=−1.0, ML=1.1, DV=−3.3, reference to bregma) and LPS into the right cerebral hemisphere (AP=−1.0, ML=1.0, DV=2.0, reference to bregma). The injection volume is 5 μl for DOX and 7 μl for LPS. The pups were allowed to recover before returning to the dam.\nTitration of doses of agents used to induce spasms. […]",
  "data": [
    {"smiles": "N[C@@H](Cc1ccc(Cl)cc1)C(=O)O", "note": "(racemic) [PCPA, p-chlorophenylalanine]", "values": [
      {"measurement": "development of spasms", "result": "none of those pups developed spasms"}
    ]}
  ]
}
